Data from US5885814A, “Vaccine containing a serine protease” (priority 1993, dated 1999).
Like-named read-outs stand apart in the source and are kept apart here. Square brackets hold non-standard residues; d marks the D form. Peptide text beside a SMILES is read from it. * marks the point of attachment. Sta = CC(C)C[C@H](N)[C@@H](O)CC(=O)O; Isovaleryl = CC(C)CC(=O)*

What was measured:
[1] = system: DPP-like protease from F. hepatica E/S products; format: biochemical, Fasciola hepatica
Protocol: The assay mixture contained 200 μl of 20 μM substrate, 100 μl of enzyme solution and 900 μl of 50 mM Hepes, pH 6.8. The reaction was allowed to proceed at 37° C. and stopped by the addition of 200 μl of 1.7M acetic acid. The liberated AMC was measured in a fluorometer with excitation and emission wavelengths of 370 nm and 440 nm, respectively.
The effect of various metal ions on the hydrolytic activity of the enzyme was examined using both gly-pro-AMC and lys-ala-AMC as substrates in assays as described above.

Mammalian DPP2 = settings: J. Biol. Chem. 263 (1988), 6613-6618; cited from earlier work
Mammalian DPP4 = settings: J. Biol. Chem. 263 (1988), 6613-6618; cited from earlier work
[2] = substance 0.5 mM, substrate Gly-Pro-AMC
[3] = substance 0.5 mM, substrate Lys-Ala-AMC
[4] = substance 1 mM, substrate Gly-Pro-AMC
[5] = substance 1 mM, substrate Lys-Ala-AMC
[6] = gly-pro-AMC and lys-ala-AMC as substrates
[7] = substance 5 mM, substrate Gly-Pro-AMC
[8] = concentration of 5 mM, gly-pro-AMC and lys-ala-AMC as substrates
[9] = substance 5 mM, substrate Lys-Ala-AMC
[10] = substance 5 μg/ml, substrate Gly-Pro-AMC
[11] = substance 5 μg/ml, substrate Lys-Ala-AMC
[12] = substance 0.02 mM, substrate Gly-Pro-AMC
[13] = substance 0.02 mM, substrate Lys-Ala-AMC
[14] = substance 0.1 mM, substrate Gly-Pro-AMC
[15] = substance 0.1 mM, substrate Lys-Ala-AMC

Molecule | Activity remaining (%) Gly-Pro [1, 2] [%] | Activity remaining (%) Lys-Ala [1, 3] [%] | Activity remaining (%) Gly-Pro [1, 4] [%] | Activity remaining (%) Lys-Ala [1, 5] [%] | effect on enzyme activity (in words) [1, 6] | Activity remaining (%) Gly-Pro [1, 7] [%] | also measured
O[C@H](CS)[C@H](O)CS (racemic) [DTT, dithiothreitol] | 77 | 61 | 90 | 62 | – | – | activation of the enzyme by thiol activating agents [1]: no activation
OCCS [2-Mercaptoethanol] | – | – | 87 | 75 | – | – | activation of the enzyme by thiol activating agents [1]: no activation
N=C(N)c1ccccc1 [Benzamidine] | – | – | 77 | – | inhibits the activity | 35 | Activity remaining (%) Gly-Pro ([1]; substance 10 mM, substrate Gly-Pro-AMC): 23%
[Ca+2] [Ca, calcium] | 133 | 96 | 57 | 62 | little effect on enzyme activity | – | –
[Cd] [Cd, cadmium] | – | – | 26 | 19 | – | 6 | inhibition of enzyme activity [1, 8]: > 90%; Activity remaining (%) Lys-Ala [1, 9]: 5%
[Co] [Co, cobalt] | – | – | 20 | 28 | – | 4 | inhibition of enzyme activity [1, 8]: > 90%; Activity remaining (%) Lys-Ala [1, 9]: 6%
N[C@@H](CS)C(=O)O [Cysteine, cysteine] | 104 | 112 | 104 | 105 | – | – | activation of the enzyme by thiol activating agents [1]: no activation
O=C(O)CN(CCN(CC(=O)O)CC(=O)O)CC(=O)O [EDTA] | – | – | – | – | – | – | effect on enzyme activity (in words) [1]: not inhibited; Activity remaining (%) Gly-Pro ([1]; pH 6.8, 2000 µM): 108%; Activity remaining (%) Lys-Ala ([1]; pH 6.8, 2000 µM): 121%
[Fe] [Fe, iron] | – | – | 6 | 5 | – | 2 | inhibition of enzyme activity [1, 8]: > 90%; Activity remaining (%) Lys-Ala [1, 9]: 2%
[Mg+2] [Mg, magnesium] | 116 | 105 | 78 | 76 | little effect on enzyme activity | – | –
[Mn+2] [Mn, manganese] | 102 | 104 | 66 | 66 | little effect on enzyme activity | – | –
O=S(=O)(F)Cc1ccccc1 [PMSF, phenylmethyl sulfonyl fluoride] | – | – | – | – | inhibited | – | Activity remaining (%) Gly-Pro ([1]; substance 2 mM, substrate Gly-Pro-AMC): 2%; Activity remaining (%) Lys-Ala ([1]; substance 2 mM, substrate Lys-Ala-AMC): 3%
[Pb] [Pb, lead] | – | – | 109 | 103 | – | 70 | Activity remaining (%) Lys-Ala [1, 9]: 82%
CC(C)CC(=O)N[C@H](C(=O)N[C@H](C(=O)N[C@@H](CC(C)C)[C@@H](O)CC(=O)N[C@@H](C)C(=O)N[C@@H](CC(C)C)[C@@H](O)CC(=O)O)C(C)C)C(C)C [Pepstatin] (Isovaleryl-VV[Sta]A[Sta]-OH) | – | – | – | – | not inhibited | – | Activity remaining (%) Gly-Pro [1, 10]: 108%; Activity remaining (%) Lys-Ala [1, 11]: 92%
COc1ccc(C[C@H](N)C(=O)N[C@H]2[C@@H](O)[C@H](n3cnc4c(N(C)C)ncnc43)O[C@@H]2CO)cc1 [Puromycin, puromycin] | – | – | – | – | neither showed any inhibitory effect | – | Activity remaining (%) Gly-Pro [1, 12]: 100%; Activity remaining (%) Lys-Ala [1, 13]: 100%; Activity remaining (%) Gly-Pro [1, 14]: 100%; Activity remaining (%) Lys-Ala [1, 15]: 100%; inhibition of mammalian DPP2 (Mammalian DPP2): will inhibit DPP2 only
[Zn] [Zn, zinc] | 80 | 37 | 3 | 14 | – | – | inhibition of enzyme activity ([1]; 1 mM concentration, gly-pro-AMC and lys-ala-AMC as substrates): > 85%
aprotinin | – | – | – | – | not inhibited | – | Activity remaining (%) Gly-Pro [1, 10]: 109%; Activity remaining (%) Lys-Ala [1, 11]: 116%
bacitracin | – | – | – | – | neither showed any inhibitory effect | – | Activity remaining (%) Gly-Pro [1, 12]: 100%; Activity remaining (%) Lys-Ala [1, 13]: 100%; Activity remaining (%) Gly-Pro [1, 14]: 100%; Activity remaining (%) Lys-Ala [1, 15]: 100%; inhibition of mammalian DPP4 (Mammalian DPP4): inhibits DPP4 only
mercury [Hg] | – | – | 7 | 4 | – | 5 | inhibition of enzyme activity [1, 8]: > 90%; Activity remaining (%) Lys-Ala [1, 9]: 2%
